One series has as its system intraintestinal content. As to the kind of experiment: Enteropooling test. Type of series: in vivo. The note with it: dose that raises the intraintestinal content by 50%. From the text: The enteropooling test employed in the present invention is intended to investigate mainly on the action (ii) and/or (iii), which assesses the effect of the drug on the intraintestinal water pool by measuring the volume of the intraintestinal content. The bi-cyclic-halogenated compounds of the present invention may show extremely great enteropooling effect. However, they hardly or slightly cause contraction of intestines which is one of indexes for assessment of the action (iv). Accordingly, the bi-cyclic-halogenated compounds of the present invention are considered to alleviate constipation by mainly acting on intestinal mucosa directly or indirectly to affect transfer of electrolytes and water from intestinal walls into blood vessels and/or from blood vessels into intestines, resulting in reduced water absorption and/or in increased water secretion through the intestines, increased intraintestinal water pool and promoted transfer of the intraintestinal content. Enteropooling tests and diarrhea tests were conducted. The dose that raise the intraintestinal content by 50% was referred to as ED50. [drawing 31] […]

For the next series, the system named is healthy male volunteers. Kind of series: Bowel movement after single oral administration to healthy male volunteers. In kind it is in vivo, human. How it is done:
Effect of the Present Invention Dissolved in Medium Chain Fatty Acid Triglyceride on Bowel Movement After Single Oral Administration to Healthy Male Volunteers
3 to 9 healthy male volunteers were treated with a composition containing the following mono-cyclic/bi-cyclic structures (in CDCl3) in a ratio of 4:96.
The test substance (R1 and R2 are F atoms) was dissolved in Panacet 800 (medium chain fatty acid triglyceride manufactured by Nippon Oil & Fat co., Ltd., Amagasaki, Japan) and filled in a capsule (each capsule contains […] of the mixture). Each subject was administered one capsule with 100 mL of water.

Series [1] is described as follows: Ratio of mono-cyclic/bi-cyclic structure by NMR measurement. Type of series: physicochemical. The note with it: NMR measurement in CDCl3 solution. The source says:
It has been discovered that in the absence of water, compounds represented by Formula (I) exist predominantly in the form of the bi-cyclic compound. In aqueous media, it is believed that hydrogen bonding occurs between, for example, the ketone position at the C-15 position, thereby hindering bi-cyclic ring formation. In addition, it is believed that the halogen atom(s) at the C-16 position promote bi-cyclic ring formation. The mono-cyclic/bi-cyclic structures, for example, may be present in a ratio of 1:6 in D2O; 1:10 in CD3OD-D2O and 4:96 in CDCl3. Accordingly, a preferable embodiment of the present invention is the composition in which the bi-cyclic form is present in ratio of bi -cyclic/mono-cyclic of least 1:1, and preferably 20:1, or even greater to substantially all bi-cyclic compound; 100% bi-cyclic compound is within this invention.
The biological activity of compositions due to the ratios of mono-cyclic/bi-cyclic structures when Z of general formula (I) is an oxygen atom, and a ketone is present at the C-9 position of the present invention can be seen from the following examples.

A short description of series [2]: Storage stability at 40° C. without solvent (crystal), content by HPLC. In kind it is physicochemical. The note with it: crystal (no solvent); for content of compound, initial: hard glass container, 40° C. The method, then: (§1) Each of the solutions was placed in a container made of hard glass and stored at 40° C. The time-course content of compound 1 and 2 in the solutions were determined by HPLC method. At the same time, each of compounds 1 and 2 was placed solely (without being dissolved in the solvent) in the container as above, and stored at 40° C. to provide control study.
(1) In the absence of the solvent, the content of the compounds was determined as follows by the HPLC method.
Stored compounds 1 and 2, and standard compounds 1 and 2 were weighed precisely around 0.025 g each, and exactly 5 mL aliquots of internal standard solution were added to the respectively weighed compounds. Test and standard preparations were obtained by adding acetonitrile (liquid chromatograph grade) to give the precise total amount of 10 mL each. Each 10 μL of the test and standard preparations were loaded on liquid chromatograph and determined the content of the compound by internal standard method with one point calibration curve.
(§2) WX: The amount of the compound in the standard preparation (mg)
WT: The amount of compound 1 and 2 in the test preparation.
(§3) QS: Peak area ratio of the compound in the standard preparation to the internal standard.
(§4) QT: Peak area ratio of the compound in the test preparation to the internal standard.
Detector: Ultraviolet absorption spectrophotometer (wavelength 294 nm)
(§5) Column: A stainless tube having about 5 mm of internal diameter and about 25 cm of length, packed with 5 μm octadecylsilyl silica gel for liquid chromatograph
Column temperature: Stable around 35° C.
Mobile phase: Mixed solution of acetonitrile (liquid chromatograph grade)/aqueous sodium acetate (0.01 mol/L)/glacial acetic acid (800:200:1)

Series [3] in a line: Storage stability at 40° C. dissolved in medium chain fatty acid triglyceride (MCT), content by HPLC. Type of series: physicochemical. To be noted: for content of compound, initial / content of compound, 14 days: in MCT (compound 1 0.36 mg/g; compound 2 0.12 mg/g); for content of compound, initial: 40° C.; for content of compound, 14 days: in % (unit assumed). How it is done: The following compounds 1 and 2 were dissolved in a medium chain fatty acid triglyceride (MCT=mixture of caprylic acid triglyceride and capric acid triglyceride in a ratio of 85:15) in an amount shown in the table below.
as §1
(2) In the presence of the solvent, the content of the compound was determined as follows by HPLC method.
Based on the value expressed in the above table, an amount of the solution corresponding to 36 μg of compounds 1 and 2 was weighed precisely. Precisely 1.0 mL of an internal standard solution was added, and then ethyl acetate, (liquid chromatograph grade) was added to give a total amount of 10 mL each. Each 0.1 mL of the solution was vacuum concentrated to dryness to give the test preparation.
Each 18 mg of the standard compounds was weighed precisely and admixed with ethyl acetate (liquid chromatograph grade) to give the total amount of exactly 50 mL each. 1.0 mL of the solution and 10.0 mL of the internal standard solution were measured precisely and admixed with ethyl acetate (liquid chromatograph grade) to give a total of 100 mL each. Each 0.1 mL of the solution was vacuum concentrated to dryness to give the standard preparation.
To the test and standard preparations, 0.1 mL of fluorescent labeling reagent and 0.85 mL of fluorescent labeling catalyst were added, respectively, and the mixture was stirred and reacted at room temperature for more than 30 minutes. 0.05 mL aliquots of acetonitrile (liquid chromatograph grade) containing 2% acetic acid were added to the reaction mixtures, respectively, stirred, and then allowed to stand for more than 30 minutes to provide test and standard solutions.
Each 10 μL of the test and standard solution was loaded on liquid chromatograph and determined the content of the respective compounds by internal standard method with one point calibration curve.
as §2, §3, §4
Detector: Fluorescent spectrometer (excitation wavelength 259 nm; fluorescent wavelength 394 nm)
as §5
Column temperature: Stable at around 35° C.
Mobile phase: Mixed solution of acetonitrile (liquid chromatograph grade)/methanol (liquid chromatograph grade)/aqueous ammonium acetate (0.05 mol/L) (4:11:5)

[4] abbreviates: 5 μg single oral capsule in Panacet 800.
[5] abbreviates: 10 μg single oral capsule in Panacet 800.
The mark [6] stands for this setting: 20 μg single oral capsule in Panacet 800.
Setting [7] is: 30 μg single oral capsule in Panacet 800.

Consider `CCCCC(F)C(=O)CCC1C(O)CC(=O)C1CC=CCCCC(=O)OC` (stereo not shown) [Example D], for which the “Enteropooling activity, ED50” value in the series on intraintestinal content worked out at 3 µg/kg.
As for `CCCCC(F)(F)C1(O)CCC2C(CC(=O)C2CCCCCCC(=O)O)O1` (stereo not shown) [test substance], the “Number of Subjects Loose or Diarrhea” value in the series on healthy male volunteers (setting [4]) is given as 2/3; with healthy male volunteers (setting [5]), 2/7; with healthy male volunteers (setting [6]), 2/3; with healthy male volunteers (setting [7]), 7/9. For the same molecule, the “Number of Subjects Normal” value is on record as 1/3 in the series on healthy male volunteers (setting [4]), 5/7 in the series on healthy male volunteers (setting [5]), 1/3 with healthy male volunteers (setting [6]) and 2/9 with healthy male volunteers (setting [7]).
Consider `CCCCC(F)C(=O)CCC1C(O)CC(=O)C1CCCCCCC(=O)O` (stereo not shown) [Example B], for which the “Enteropooling activity, ED50” value in the series on intraintestinal content came to 2 µg/kg.
Turning to `CCCCCC(=O)CCC1C(O)CC(=O)C1CCCCCCC(=O)O` (stereo not shown) [Comparative Example A, reference compound], the “Enteropooling activity, ED50” value in the series on intraintestinal content worked out at 320 µg/kg. Also, the “Ratio of mono-cyclic/bi-cyclic structure” value in series [1] is given as “No signal”.
Take `CCCCCC(=O)CCC1C(O)CC(=O)C1CC=CCCCC(=O)OC` (stereo not shown) [Comparative Example C, reference compound]: in the series with intraintestinal content, the “Enteropooling activity, ED50” value was found to be 220 µg/kg.
As to `CC[C@H](C)CC(F)(F)C1(O)CC[C@@H]2C(CCCCCCC(=O)O)C(=O)C[C@H]2O1` (stereo partly shown) [compound 2], the content of compound, initial in series [2] and in series [3] was 100% throughout. Also, the content of compound, 6 days in series [2] (stored at 40° C., 6 days) stood at 84.5%. Besides, the content of compound, 14 days in series [2] (stored at 40° C.) came to 75%; in series [3] (stored at 40° C.), 99.6. In addition, the content of compound, 28 days in series [2] (stored at 40° C.) stood at 53.4%; in series [3] (in MCT (compound 2 0.12 mg/g), stored at 40° C., 28 days), 98.9%. Moreover, the content of compound, 191 days in series [3] (in MCT (compound 2 0.12 mg/g), stored at 40° C., 191 days) was 99.6%.
`CCCCC(F)(F)C1(O)CCC2C(CC(=O)C2CC=CCCCC(=O)OC)O1` (stereo not shown) [Example C]: the “Enteropooling activity, ED50” value in the series on intraintestinal content was found to be 0.3 µg/kg.
As to `CCCCC(F)(F)C1(O)CC[C@@H]2C(CCCCCCC(=O)O)C(=O)C[C@H]2O1` (stereo partly shown) [compound 1], the content of compound, initial in series [2] and in series [3] was 100% throughout. Moreover, the “content of compound, 7 days” value in series [2] (stored at 40° C., 7 days) worked out at 97.2. Moreover, the content of compound, 14 days in series [2] (stored at 40° C.) worked out at 94.1%; in series [3] (stored at 40° C.), 101.4. The content of compound, 28 days in series [2] (stored at 40° C.) is 87.4%. The “content of compound, 38 days” value in series [3] (in MCT (compound 1 0.36 mg/g), stored at 40° C., 38 days) stood at 102.1. The “content of compound, 90 days” value in series [3] (in MCT (compound 1 0.36 mg/g), stored at 40° C., 90 days) came out at 100.9.
As to `CCCCC(F)(F)C1(O)CCC2C(CC(=O)C2CCCCCCC(=O)O)O1` (stereo not shown) [Example A], in the series with intraintestinal content, the “Enteropooling activity, ED50” value turned out to be 0.6 µg/kg.

(Values after patent US8071613B2, “Anti-constipation composition” (Sucampo AG, priority 2000, dated 2011).)
